Experimental data: ChEMBL document CHEMBL1149970, “Novel dithiocarbamate carbapenems1 with anti-MRSA activity” (Bioorg Med Chem Lett, 1997)
Converted amounts (≈) assume the structure as drawn.

Tests used:
[1] = tested on: Staphylococcus aureus; assay: In vitro antibacterial activity against staphylococcus aureus 209P NIHJ JC1 organism; format: functional
[2] = tested on: Staphylococcus epidermidis; assay: In vitro antibacterial activity against Staphylococcus epidermidis MB5181a organism; format: functional; conditions: Staphylococcus epidermidis; read-out: MIC
[3] = biological target: T1, Dipeptidase 1 (Sus scrofa) (UniProt P22412); assay: Relative rate of hydrolysis of porcine renal dehydropeptidase-I (DHP-I) to imipenem; format: functional
T1 sequence (whole entry): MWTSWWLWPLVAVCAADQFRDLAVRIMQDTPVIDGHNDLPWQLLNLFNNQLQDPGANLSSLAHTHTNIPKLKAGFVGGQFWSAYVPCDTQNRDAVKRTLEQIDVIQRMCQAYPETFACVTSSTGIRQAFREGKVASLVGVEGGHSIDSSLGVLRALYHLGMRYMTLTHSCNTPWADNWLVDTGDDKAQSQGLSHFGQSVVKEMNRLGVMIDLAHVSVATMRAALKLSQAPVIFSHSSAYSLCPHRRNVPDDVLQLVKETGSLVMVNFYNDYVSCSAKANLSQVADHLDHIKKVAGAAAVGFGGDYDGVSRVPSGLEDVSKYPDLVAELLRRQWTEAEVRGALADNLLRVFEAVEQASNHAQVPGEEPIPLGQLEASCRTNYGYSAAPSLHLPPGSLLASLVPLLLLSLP

[4] = tested on: Staphylococcus aureus; assay: In vitro antibacterial activity against staphylococcus aureus BB6294 organism (Methicillin-resistant strain); format: functional
[5] = tested on: Staphylococcus aureus; assay: In vitro antibacterial activity against staphylococcus aureus CSa1009 (Methicillin-resistant strain and b beta-Lactamase producing strain); format: functional
[6] = tested on: Pseudomonas aeruginosa; assay: In vitro antibacterial activity against Pseudomonas aeruginosa MB5002 organism; format: functional
[7] = tested on: Staphylococcus aureus; assay: Compound was tested in vivo for its anti-methicillin-resistant staphylococcus aureus(MRSA); format: functional
[8] = tested on: Escherichia coli; assay: In vitro antibacterial activity against Escherichia coli NIHJ JC2 organism; format: functional
[9] = tested on: Enterococcus faecalis; assay: In vitro antibacterial activity against Enterococcus faecalis MB4996 organism; format: functional
[10] = Compound was measured for binding rate for human serum at a carbapenem concentration of 10 ug/mL; format: ADME; conditions: read-out: Protein binding (converted)
[11] = tested on: Rattus norvegicus; assay: Epileptogenicity of compound was measured at 100 ug/rat head by the rat intraventricular assay; 0/5; format: functional, Cerebral ventricle
[12] = tested on: Staphylococcus aureus; assay: Compound was tested in vitro for its anti-methicillin-resistant staphylococcus aureus(MRSA); 3.13-6.25; format: functional
[13] = species: Mus musculus; assay: Compound was measured for binding rate for mouse serum at a carbapenem concentration of 10 ug/mL; format: functional
[14] = PBP-2'' affinity was determined by the competition assay with [14C]benzylpenicillin using membrane isolated from MRSA BB6294 strain; format: functional, Staphylococcus aureus
[15] = biological target: T1, Dipeptidase 1 (Sus scrofa); assay: Compound was measured for DHP-I susceptibility; format: functional

C[C@@H](O)[C@H]1C(=O)N2C(C(=O)O)=C(SC(=O)N3CCCC3)[C@H](C)[C@H]12
MIC [1]: 0.05 µg/mL (≈ 0.147 µM) | MIC [2]: 25 µg/mL (≈ 73.4 µM) | DHP-I susceptibility [3]: 0.65 | MIC [4]: 25 µg/mL (≈ 73.4 µM) | MIC [5]: 25 µg/mL (≈ 73.4 µM)

CN[C@H](CC(C)C)C(=O)N[C@H]1C(=O)N[C@@H](CC(N)=O)C(=O)N[C@H]2C(=O)N[C@H]3C(=O)N[C@H](C(=O)N[C@H](C(=O)O)c4cc(O)cc(O)c4-c4cc3ccc4O)[C@H](O)c3ccc(c(Cl)c3)Oc3cc2cc(c3O[C@@H]2O[C@H](CO)[C@@H](O)[C@H](O)[C@H]2O[C@H]2C[C@](C)(N)[C@H](O)[C@H](C)O2)Oc2ccc(cc2Cl)[C@H]1O [VANCOMYCIN]
MIC [1]: 0.39 µg/mL (≈ 0.269 µM) | MIC [6]: > 25 µg/mL | ED50 ([7]; Staphylococcus aureus): 5.56 mg/kg | MIC [8]: > 25 µg/mL

C[C@@H](O)[C@H]1C(=O)N2C(C(=O)O)=C(SC(=S)N(C)c3cccs3)[C@H](C)[C@H]12
MIC [1]: < 0.006 µg/mL | MIC [2]: 0.78 µg/mL (≈ 1.96 µM) | DHP-I susceptibility [3]: 2.05 | MIC [4]: 1.56 µg/mL (≈ 3.91 µM) | MIC [6]: > 25 µg/mL | MIC [9]: 3.13 µg/mL (≈ 7.85 µM) | MIC [5]: 3.13 µg/mL (≈ 7.85 µM) | MIC [8]: 12.5 µg/mL (≈ 31.4 µM)

CCN(CCO)C(=S)SC1=C(C(=O)O)N2C(=O)[C@H]([C@@H](C)O)[C@H]2[C@H]1C
MIC [1]: 0.025 µg/mL (≈ 0.0668 µM) | MIC [2]: 3.13 µg/mL (≈ 8.36 µM) | DHP-I susceptibility [3]: 2.38 | MIC [4]: 6.25 µg/mL (≈ 16.7 µM) | MIC [6]: > 25 µg/mL | MIC [9]: 6.25 µg/mL (≈ 16.7 µM) | MIC [5]: 6.25 µg/mL (≈ 16.7 µM) | MIC [8]: 6.25 µg/mL (≈ 16.7 µM)

C[C@@H](O)[C@H]1C(=O)N2C(C(=O)O)=C(SC(=S)N(C)Cc3ccccc3)[C@H](C)[C@H]12
MIC [1]: 0.012 µg/mL (≈ 0.0295 µM) | MIC [2]: 3.13 µg/mL (≈ 7.7 µM) | DHP-I susceptibility [3]: 1.94 | MIC [4]: 1.56 µg/mL (≈ 3.84 µM) | MIC [6]: > 25 µg/mL | MIC [9]: 1.56 µg/mL (≈ 3.84 µM) | MIC [5]: 1.56 µg/mL (≈ 3.84 µM) | MIC [8]: 12.5 µg/mL (≈ 30.7 µM)

C[C@@H](O)[C@H]1C(=O)N2C(C(=O)O)=C(SC(=S)N3CCCCC3)[C@H](C)[C@H]12
MIC [1]: 0.025 µg/mL (≈ 0.0675 µM) | MIC [2]: 3.13 µg/mL (≈ 8.45 µM) | DHP-I susceptibility [3]: 3.1 | MIC [4]: 1.56 µg/mL (≈ 4.21 µM) | MIC [6]: > 25 µg/mL | MIC [9]: 6.25 µg/mL (≈ 16.9 µM) | MIC [5]: 3.13 µg/mL (≈ 8.45 µM) | MIC [8]: 25 µg/mL (≈ 67.5 µM)

C[C@@H](O)[C@H]1C(=O)N2C(C(=O)O)=C(SC(=S)N3CCCC(O)CC3)[C@H](C)[C@H]12 (stereo not given in full)
fraction unbound at 10 ug/mL [10]: 0.15 | MIC [1]: 0.012 µg/mL (≈ 0.03 µM) | MIC [2]: 3.13 µg/mL (≈ 7.81 µM) | Epileptogenicity [11]: 0 | DHP-I susceptibility [3]: 2.88 | MIC [12]: 3.55 µg/mL (≈ 8.86 µM) | MIC [4]: 3.13 µg/mL (≈ 7.81 µM) | PPB [13]: 92% | IC50 [14]: 1.9 µg/mL (≈ 4.74 µM) | MIC [6]: > 25 µg/mL | MIC [9]: 3.13 µg/mL (≈ 7.81 µM) | DHP-I susceptibility [15]: 2.88 | MIC [5]: 3.13 µg/mL (≈ 7.81 µM) | ED50 [7]: 2.88 mg/kg | MIC [8]: 12.5 µg/mL (≈ 31.2 µM)

CCN(CC)C(=S)SC1=C(C(=O)O)N2C(=O)[C@H]([C@@H](C)O)[C@H]2[C@H]1C
MIC [1]: 0.025 µg/mL (≈ 0.0697 µM) | MIC [2]: 3.13 µg/mL (≈ 8.73 µM) | DHP-I susceptibility [3]: 2.51 | MIC [4]: 3.13 µg/mL (≈ 8.73 µM) | MIC [6]: 25 µg/mL (≈ 69.7 µM) | MIC [9]: 12.5 µg/mL (≈ 34.9 µM) | MIC [5]: 3.13 µg/mL (≈ 8.73 µM) | MIC [8]: 25 µg/mL (≈ 69.7 µM)

C[C@@H](O)[C@H]1C(=O)N2C(C(=O)O)=C(SC(=S)N3CCCC3)C[C@H]12
MIC [1]: 0.025 µg/mL (≈ 0.073 µM) | MIC [2]: 12.5 µg/mL (≈ 36.5 µM) | DHP-I susceptibility [3]: 11.7 | MIC [4]: 6.25 µg/mL (≈ 18.3 µM) | MIC [5]: 25 µg/mL (≈ 73 µM)

CCN(C)C(=S)SC1=C(C(=O)O)N2C(=O)[C@H]([C@@H](C)O)[C@H]2[C@H]1C
MIC [1]: 0.025 µg/mL (≈ 0.0726 µM) | MIC [2]: 3.13 µg/mL (≈ 9.09 µM) | DHP-I susceptibility [3]: 2.26 | MIC [4]: 3.13 µg/mL (≈ 9.09 µM) | MIC [6]: > 25 µg/mL | MIC [9]: 6.25 µg/mL (≈ 18.1 µM) | MIC [5]: 3.13 µg/mL (≈ 9.09 µM) | MIC [8]: 6.25 µg/mL (≈ 18.1 µM)

C[C@@H](O)[C@H]1C(=O)N2C(C(=O)O)=C(SC(=S)N3CCC3)[C@H](C)[C@H]12
MIC [1]: 0.025 µg/mL (≈ 0.073 µM) | MIC [2]: 6.25 µg/mL (≈ 18.3 µM) | DHP-I susceptibility [3]: 3.03 | MIC [4]: 3.13 µg/mL (≈ 9.14 µM) | MIC [6]: > 25 µg/mL | MIC [9]: 6.25 µg/mL (≈ 18.3 µM) | MIC [5]: 6.25 µg/mL (≈ 18.3 µM) | MIC [8]: 3.13 µg/mL (≈ 9.14 µM)

C[C@@H](O)[C@H]1C(=O)N2C(C(=O)O)=C(SC(=S)N(C)CCO)[C@H](C)[C@H]12
fraction unbound at 10 ug/mL [10]: 0.53 | MIC [1]: 0.025 µg/mL (≈ 0.0694 µM) | MIC [2]: 6.25 µg/mL (≈ 17.3 µM) | Epileptogenicity [11]: 0 | DHP-I susceptibility [3]: 1.36 | MIC [12]: 4.36 µg/mL (≈ 12.1 µM) | MIC [4]: 3.13 µg/mL (≈ 8.68 µM) | PPB [13]: 58% | IC50 [14]: 3.8 µg/mL (≈ 10.5 µM) | MIC [6]: > 25 µg/mL | MIC [9]: 6.25 µg/mL (≈ 17.3 µM) | DHP-I susceptibility [15]: 1.33 | MIC [5]: 6.25 µg/mL (≈ 17.3 µM) | ED50 [7]: 4.8 mg/kg | MIC [8]: 0.78 µg/mL (≈ 2.16 µM)
